Measured values from ChEMBL document CHEMBL2434955, “Potent inhibition of norovirus by dipeptidyl α-hydroxyphosphonate transition state mimics” (Bioorg Med Chem Lett, 2013).

Assays:
[1] = test system: Norovirus; assay: Antiviral activity against Norovirus in cell-based replicon system
[2] = test system: Norovirus 3CL protease (Norovirus); assay: Inhibition of Norovirus 3CL protease by FRET assay
[3] = biological target: Prothrombin (Homo sapiens) (UniProt P00734); assay: Inhibition of thrombin (unknown origin) at 2.75 uM after 30 mins
[4] = biological target: Trypsin (Homo sapiens) (UniProt P07477+P07478+P35030); assay: Inhibition of trypsin (unknown origin) at 125 uM after 30 mins; assay type: protein assay
[5] = species on record: Homo sapiens; assay: Inhibition of human neutrophil elastase at 17.5 uM after 30 mins
[6] = species on record: Homo sapiens; assay: Inhibition of alpha-chymotrypsin (unknown origin) at 2.5 uM after 30 mins
[7] = biological target: T1, Carboxypeptidase A1 (Homo sapiens) (UniProt P15085); assay: Inhibition of carboxypeptidase A (unknown origin) at 43 uM after 30 mins
T1 sequence (whole entry): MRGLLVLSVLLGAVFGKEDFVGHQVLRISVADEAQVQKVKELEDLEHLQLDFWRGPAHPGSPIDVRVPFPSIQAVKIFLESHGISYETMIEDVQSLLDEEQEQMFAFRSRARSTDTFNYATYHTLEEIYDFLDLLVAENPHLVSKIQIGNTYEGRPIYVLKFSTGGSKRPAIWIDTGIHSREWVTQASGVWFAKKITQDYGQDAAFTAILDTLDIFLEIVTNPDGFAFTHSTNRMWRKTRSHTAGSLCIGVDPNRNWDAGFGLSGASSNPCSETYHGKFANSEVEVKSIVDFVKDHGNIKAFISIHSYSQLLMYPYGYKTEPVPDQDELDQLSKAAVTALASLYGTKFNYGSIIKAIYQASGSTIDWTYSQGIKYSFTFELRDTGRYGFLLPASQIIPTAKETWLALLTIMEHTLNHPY

Row | Compound | EC50 [1] [nM] | IC50 [2] [µM] | other results
1 | O=C(N[C@@H](CC1CCCCC1)C(=O)N[C@@H](CC1CCNC1=O)C(O)P(=O)(OCc1ccccc1)OCc1ccccc1)OCc1ccccc1 (mixture of isomers) | 600 |  | 
2 | CCOP(=O)(OCC)C(O)[C@H](CC1CCNC1=O)NC(=O)[C@H](CC(C)C)NC(=O)OCc1ccccc1 (mixture of isomers) | 800 | 11.5 | 
3 | COP(=O)(OC)C(O)[C@H](CC1CCNC1=O)NC(=O)[C@H](CC(C)C)NC(=O)OCc1ccccc1 (mixture of isomers) | 3500 | 20.2 | 
4 | CC(C)C[C@H](NC(=O)OCc1ccccc1)C(=O)N[C@@H](CC1CCNC1=O)C(O)P(=O)(O)O (mixture of isomers) | 7500 |  | 
5 | CCOP(=O)(OCC)C(O)[C@H](CC1CCNC1=O)NC(=O)[C@H](CC1CCCCC1)NC(=O)OCc1ccccc1 (mixture of isomers) | 250 | 3.5 | inhibition [3]: 0%; inhibition [4]: 0%; inhibition [5]: 15%; inhibition [6]: 0%; inhibition [7]: 0%
6 | COP(=O)(OC)C(O)[C@H](CC1CCNC1=O)NC(=O)[C@H](CC1CCCCC1)NC(=O)OCc1ccccc1 (mixture of isomers) | 2800 | 8.3 | 
7 | CCCCOP(=O)(OCCCC)C(O)[C@H](CC1CCNC1=O)NC(=O)[C@H](CC1CCCCC1)NC(=O)OCc1ccccc1 (mixture of isomers) | 500 |  | 
8 | O=C(N[C@@H](CC1CCCCC1)C(=O)N[C@@H](CC1CCNC1=O)C(O)P(=O)(OCC(F)(F)F)OCC(F)(F)F)OCc1ccccc1 (mixture of isomers) | 350 | 6.5 | 
